Test results published in ChEMBL document CHEMBL4265997, “Decision Making in Medicinal Chemistry: The Power of Our Intuition” (ACS Med Chem Lett, 2018).

Molecular target: Estrogen receptor beta (Homo sapiens, UniProt Q92731)
Assay: Antagonist activity at ER-beta (unknown origin)

Sequence of Estrogen receptor beta (Q92731 whole entry): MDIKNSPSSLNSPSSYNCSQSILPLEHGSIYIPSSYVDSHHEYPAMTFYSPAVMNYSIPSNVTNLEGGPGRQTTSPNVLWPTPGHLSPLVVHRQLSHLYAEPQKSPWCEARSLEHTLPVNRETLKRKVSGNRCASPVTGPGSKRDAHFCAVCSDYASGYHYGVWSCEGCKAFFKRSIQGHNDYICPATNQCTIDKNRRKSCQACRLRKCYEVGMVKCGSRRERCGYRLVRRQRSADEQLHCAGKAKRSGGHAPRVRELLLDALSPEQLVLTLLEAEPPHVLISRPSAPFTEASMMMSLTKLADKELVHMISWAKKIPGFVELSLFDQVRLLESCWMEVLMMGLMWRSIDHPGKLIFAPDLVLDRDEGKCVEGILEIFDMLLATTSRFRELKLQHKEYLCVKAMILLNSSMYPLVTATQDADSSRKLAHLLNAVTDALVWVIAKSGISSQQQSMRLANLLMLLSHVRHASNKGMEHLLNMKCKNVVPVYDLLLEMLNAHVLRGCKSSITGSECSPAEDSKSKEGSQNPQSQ

Row | SMILES | IC50
1 | CNC(=O)c1ccc2nc(C)c3nnc(-c4cc(OCC(C)C)ccc4Cl)n3c2c1 | 0.631 nM
2 | CNC(=O)c1ccc2nc(C)c3nnc(-c4ccccc4Cl)n3c2c1 | 2.51 nM
